Test results reported in patent US11123337B2, “4-methylsulfonyl-substituted piperidine urea compounds” (MYOKARDIA, INC., priority 2015, dated 2021).
Where a name gives a salt, the structure may show the parent alone.

Columns and labels:
[1] = target: bovine cardiac myosin (Bos taurus, UniProt Q9BE39); assay: Myosin activation assay (PK/LDH-coupled ATPase, bovine cardiac myofibrils); type: biochemical; settings: AC20 = concentration at which total response is increased by twenty percent
Outline: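 Values are the concentrations raising the ATPase rate by 20% or 50% over DMSO, from 10-point dose responses fitted with four parameters. Rate is NADH loss at 340 nm via PK/LDH coupling, read 15 min at room temperature, in pH 6.8 PIPES with 50 μM ATP. Bovine cardiac myofibrils were held at pCa ~6 or pCa 10.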

[2] = test system: adult rat ventricular myocytes; assay: Cardiomyocyte contractility assay (IonOptix edge detection, fractional shortening); type: cell-based; settings: 1 Hz pacing; for Activity at 10 uM (fractional shortening activation over basal): 10 uM compound; for Activity at 3.0 uM (fractional shortening activation over basal): 3.0 uM compound; for Activity at 1.0 uM (fractional shortening activation over basal): 1.0 uM compound
Description: Contractility of adult rat ventricular myocytes is determined by edge detection with an IonOptix contractility system. Aliquots of myocytes in Tyrode buffer (137 mM NaCl, 3.7 mM KCl, 0.5 mM MgCl2, 1.5 mM CaCl2), 4 mM HEPES, 11 mM glucose) are placed in a perfusion chamber (Series 20 RC-27NE; Warner Instruments), allowed to adhere to the coverslip, and then perfused with 37° C. Tyrode buffer. Myocytes are filed stimulated at 1 Hz and 10V. Only myocytes with clear striations, quiescent prior to pacing, with a cell length of 120-180 microns, a basal fractional shortening equal to 3-8% of the cell length, and a contraction velocity greater than 100 microns per second are used for contractility experiments. To determine the response to compounds, myocytes are first perfused for 60 seconds with Tyrodes buffer followed by 5 minutes of compound and a 140 second washout with Tyrodes buffer. Data is continuously recorded using IonOptix software. Contractility data is analyzed using Ionwizard software (IonOptix). For each cell, 10-20 contractility transients were averaged and compared under basal (no compound) and compound-treated conditions. Compound activity is measured by effects on fractional shortening (FS), where fractional shortening is the ratio of the peak length of the cell at contraction divided by the basal cell length normalized to 100% for an untreated cell.

Chain of bovine cardiac myosin (Q9BE39 whole entry): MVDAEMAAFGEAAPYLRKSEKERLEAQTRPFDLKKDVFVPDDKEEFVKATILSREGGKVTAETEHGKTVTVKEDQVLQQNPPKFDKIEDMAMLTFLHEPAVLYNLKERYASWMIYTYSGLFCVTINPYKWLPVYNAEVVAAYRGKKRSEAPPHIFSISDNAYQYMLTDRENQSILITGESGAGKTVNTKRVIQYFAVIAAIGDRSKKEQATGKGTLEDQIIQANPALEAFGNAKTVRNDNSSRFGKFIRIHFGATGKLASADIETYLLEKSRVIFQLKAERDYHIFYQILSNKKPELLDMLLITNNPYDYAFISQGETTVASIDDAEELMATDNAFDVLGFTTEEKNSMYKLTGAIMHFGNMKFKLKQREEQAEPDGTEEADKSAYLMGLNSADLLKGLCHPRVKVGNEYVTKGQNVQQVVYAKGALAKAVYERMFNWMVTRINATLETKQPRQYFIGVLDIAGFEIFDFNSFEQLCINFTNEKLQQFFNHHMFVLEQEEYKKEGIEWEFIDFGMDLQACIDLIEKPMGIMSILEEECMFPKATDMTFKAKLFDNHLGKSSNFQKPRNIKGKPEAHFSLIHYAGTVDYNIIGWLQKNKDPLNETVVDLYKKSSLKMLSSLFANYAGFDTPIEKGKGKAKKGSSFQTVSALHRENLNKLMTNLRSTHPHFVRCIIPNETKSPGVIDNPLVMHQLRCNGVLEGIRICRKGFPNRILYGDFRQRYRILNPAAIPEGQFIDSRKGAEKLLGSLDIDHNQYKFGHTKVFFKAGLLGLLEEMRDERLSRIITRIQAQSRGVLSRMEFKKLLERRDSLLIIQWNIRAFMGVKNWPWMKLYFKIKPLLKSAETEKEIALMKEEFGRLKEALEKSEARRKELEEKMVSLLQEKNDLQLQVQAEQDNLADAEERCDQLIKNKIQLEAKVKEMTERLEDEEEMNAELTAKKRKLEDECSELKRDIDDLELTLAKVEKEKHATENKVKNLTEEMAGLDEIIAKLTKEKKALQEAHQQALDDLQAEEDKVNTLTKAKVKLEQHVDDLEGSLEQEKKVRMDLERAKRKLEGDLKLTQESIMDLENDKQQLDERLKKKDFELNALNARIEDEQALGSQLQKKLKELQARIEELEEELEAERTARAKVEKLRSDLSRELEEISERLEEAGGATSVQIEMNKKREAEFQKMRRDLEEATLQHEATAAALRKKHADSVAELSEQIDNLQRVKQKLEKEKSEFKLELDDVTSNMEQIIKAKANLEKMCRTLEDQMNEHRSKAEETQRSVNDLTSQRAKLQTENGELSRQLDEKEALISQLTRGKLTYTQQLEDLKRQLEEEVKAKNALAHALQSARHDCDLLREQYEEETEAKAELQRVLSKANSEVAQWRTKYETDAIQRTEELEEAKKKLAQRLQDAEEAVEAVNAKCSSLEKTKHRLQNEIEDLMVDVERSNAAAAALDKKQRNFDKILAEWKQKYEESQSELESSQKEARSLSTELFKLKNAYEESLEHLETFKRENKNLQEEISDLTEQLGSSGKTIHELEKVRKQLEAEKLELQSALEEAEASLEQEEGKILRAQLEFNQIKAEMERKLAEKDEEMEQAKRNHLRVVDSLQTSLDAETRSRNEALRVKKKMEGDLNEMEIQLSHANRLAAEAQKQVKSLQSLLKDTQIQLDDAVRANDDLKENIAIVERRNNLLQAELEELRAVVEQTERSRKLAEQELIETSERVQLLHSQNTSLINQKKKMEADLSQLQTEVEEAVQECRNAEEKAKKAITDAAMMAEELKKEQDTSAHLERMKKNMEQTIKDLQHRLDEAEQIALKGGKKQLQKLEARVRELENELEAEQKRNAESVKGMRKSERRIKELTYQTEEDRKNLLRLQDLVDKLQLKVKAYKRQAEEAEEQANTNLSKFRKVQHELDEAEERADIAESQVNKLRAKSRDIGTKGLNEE
Chain of bovine cardiac myosin (P85100 whole entry partner): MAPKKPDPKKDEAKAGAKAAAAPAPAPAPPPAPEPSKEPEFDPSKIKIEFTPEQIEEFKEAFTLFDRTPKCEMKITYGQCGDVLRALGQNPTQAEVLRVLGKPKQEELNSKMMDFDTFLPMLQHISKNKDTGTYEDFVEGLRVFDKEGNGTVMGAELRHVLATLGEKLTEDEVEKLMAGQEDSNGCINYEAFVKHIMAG
Chain of bovine cardiac myosin (Q3SZE5 whole entry partner): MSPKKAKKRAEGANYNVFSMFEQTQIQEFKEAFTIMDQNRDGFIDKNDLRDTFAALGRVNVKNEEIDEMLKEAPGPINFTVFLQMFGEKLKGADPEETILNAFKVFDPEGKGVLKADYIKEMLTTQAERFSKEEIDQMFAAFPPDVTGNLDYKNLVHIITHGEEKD

| Compound | Myosin Activation (AC20) [1] | Activity at 10 uM (fractional shortening activation over basal) [2] | Activity at 3.0 uM (fractional shortening activation over basal) [2] | Activity at 1.0 uM (fractional shortening activation over basal) [2] |
| --- | --- | --- | --- | --- |
| CC(F)(C1CCN(C(=O)Nc2ccnnc2)CC1)S(=O)(=O)c1cccc(F)c1 (stereo not shown) [Compound 6, 4-(1-Fluoro-1-((3-fluorophenyl)sulfonyl)ethyl)-N-(pyridazin-4-yl)piperidine-1-carboxamide trifluoroacetic acid salt] | ++ (++ represents myosin activation value AC20 from 2 μM-5 μM) | ++ (++ represents fractional shorting activation values from 20% to 50% over basal) |  |  |
| Cn1nc(Cl)cc1S(=O)(=O)C(C)(C)C1CCN(C(=O)Nc2ccon2)CC1 [Compound 129, 4-(2-((3-chloro-1-methyl-1H-pyrazol-5-yl)sulfonyl)propan-2-yl)-N-(isoxazol-3-yl)piperidine-1-carboxamide] | +++ (+++ represents myosin activation value AC20 < 2 μM) |  | +++ (+++ represents fractional shortening activation values greater than 50% over basal) |  |
| Cn1cc(S(=O)(=O)C(C)(C)C2CCN(C(=O)Nc3ccon3)CC2)c(C(F)F)n1 [Compound 149, 4-(2-((3-(difluoromethyl)-1-methyl-1H-pyrazol-4-yl)sulfonyl)propan-2-yl)-N-(isoxazol-3-yl)piperidine-1-carboxamide] | ++ (++ represents myosin activation value AC20 from 2 μM-5 μM) |  | ++ (++ represents fractional shorting activation values from 20% to 50% over basal) |  |
| O=C(Nc1ccnnc1)N1CCC(C(F)(F)S(=O)(=O)c2cccc(F)c2)CC1 [Compound 5, 4-(Difluoro((3-fluorophenyl)sulfonyl)methyl)-N-(pyridazin-4-yl)piperidine-1-carboxamide] | ++ (++ represents myosin activation value AC20 from 2 μM-5 μM) | +++ (+++ represents fractional shortening activation values greater than 50% over basal) |  | ++ (++ represents fractional shorting activation values from 20% to 50% over basal) |
| Cn1cc(S(=O)(=O)[C@@](C)(F)C2CCN(C(=O)Nc3ccon3)CC2)c(C(F)F)n1 [Compound 20, (R)-4-(1-((3-(Difluoromethyl)-1-methyl-1H-pyrazol-4-yl)sulfonyl)-1-fluoroethyl)-N-(isoxazol-3-yl)piperidine-1-carboxamide] | +++ (+++ represents myosin activation value AC20 < 2 μM) |  | ++ (++ represents fractional shorting activation values from 20% to 50% over basal) | + (+ represents fractional shorting activation <20% over basal) |
| Cn1nc(C(F)(F)F)cc1S(=O)(=O)[C@@](C)(F)C1CCN(C(=O)Nc2ccon2)CC1 [Compound 18, (R)-4-(1-Fluoro-1-((1-methyl-3-(trifluoromethyl)-1H-pyrazol-5-yl)sulfonyl)ethyl)-N-(isoxazol-3-yl)piperidine-1-carboxamide] | +++ (+++ represents myosin activation value AC20 < 2 μM) |  |  | +++ (+++ represents fractional shortening activation values greater than 50% over basal) |
| COc1ccc(S(=O)(=O)C(C)(F)C2CCN(C(=O)Nc3ccon3)CC2)cn1 (stereo not shown) [Compound 246, 4-(1-fluoro-1-((6-methoxypyridin-3-yl)sulfonyl)ethyl)-N-(isoxazol-3-yl)piperidine-1-carboxamide] | ++ (++ represents myosin activation value AC20 from 2 μM-5 μM) |  | +++ (+++ represents fractional shortening activation values greater than 50% over basal) |  |
| C[C@](F)(C1CCN(C(=O)Nc2ccnc(CO)c2)CC1)S(=O)(=O)c1cccc(F)c1 [Compound 287, (R)-4-(1-fluoro-1-((3-fluorophenyl)sulfonyl)ethyl)-N-(2-(hydroxymethyl)pyridin-4-yl)piperidine-1-carboxamide] | +++ (+++ represents myosin activation value AC20 < 2 μM) |  | ++ (++ represents fractional shorting activation values from 20% to 50% over basal) | ++ (++ represents fractional shorting activation values from 20% to 50% over basal) |
| CC(C)(C1CCN(C(=O)Nc2ccnnc2)CC1)S(=O)(=O)c1ccccc1Cl [Compound 197, 4-(2-((2-chlorophenyl)sulfonyl)propan-2-yl)-N-(pyridazin-4-yl)piperidine-1-carboxamide] | +++ (+++ represents myosin activation value AC20 < 2 μM) |  |  |  |
| Cc1cc(C#N)ccc1S(=O)(=O)C(F)(F)C1CCN(C(=O)Nc2ccnnc2)CC1 [Compound 52, 4-(((4-cyano-2-methylphenyl)sulfonyl)difluoromethyl)-N-(pyridazin-4-yl)piperidine-1-carboxamide] | ++ (++ represents myosin activation value AC20 from 2 μM-5 μM) |  |  |  |
| Cn1nccc1S(=O)(=O)C(C)(C)C1CCN(C(=O)Nc2ccnnc2)CC1 [Compound 192, 4-(2-((1-methyl-1H-pyrazol-5-yl)sulfonyl)propan-2-yl)-N-(pyridazin-4-yl)piperidine-1-carboxamide] | +++ (+++ represents myosin activation value AC20 < 2 μM) |  |  |  |
| Cn1nc(Cl)cc1S(=O)(=O)C(C)(C)C1CCN(C(=O)Nc2ccnc(F)c2)CC1 [Compound 115, 4-(2-((3-chloro-1-methyl-1H-pyrazol-5-yl)sulfonyl)propan-2-yl)-N-(2-fluoropyridin-4-yl)piperidine-1-carboxamide] | ++ (++ represents myosin activation value AC20 from 2 μM-5 μM) |  |  |  |
| Cc1ccccc1S(=O)(=O)CC1CCN(C(=O)Nc2ccncc2)CC1 [Compound 39, N-(pyridin-4-yl)-4-((o-tolylsulfonyl)methyl)piperidine-1-carboxamide] | + (+ represents myosin activation value AC20 > 5 μM) |  |  |  |
| CC(C)(C1CCN(C(=O)Nc2nccs2)CC1)S(=O)(=O)c1cccc(F)c1 [Compound 156, 4-(2-((3-fluorophenyl)sulfonyl)propan-2-yl)-N-(thiazol-2-yl)piperidine-1-carboxamide] | + (+ represents myosin activation value AC20 > 5 μM) |  |  |  |
| O=C(Nc1ccnnc1)N1CCC(C(F)(F)S(=O)(=O)c2cccc(C(F)(F)F)c2)CC1 [Compound 49, 4-(difluoro((3-(trifluoromethyl)phenyl)sulfonyl)methyl)-N-(pyridazin-4-yl)piperidine-1-carboxamide] | ++ (++ represents myosin activation value AC20 from 2 μM-5 μM) |  |  |  |
| O=C(Nc1ccnnc1)N1CCC(C2(S(=O)(=O)c3cccc(F)c3)CC(F)(F)C2)CC1 [Compound 28, 4-(3,3-Difluoro-1-((3-fluorophenyl)sulfonyl)cyclobutyl)-N-(pyridazin-4-yl)piperidine-1-carboxamide] | ++ (++ represents myosin activation value AC20 from 2 μM-5 μM) |  |  |  |
| Cc1cc(S(=O)(=O)C(F)(F)C2CCN(C(=O)Nc3ccnnc3)CC2)n(C(C)C)n1 [Compound 87, 4-(difluoro((1-isopropyl-3-methyl-1H-pyrazol-5-yl)sulfonyl)methyl)-N-(pyridazin-4-yl)piperidine-1-carboxamide] | + (+ represents myosin activation value AC20 > 5 μM) |  |  |  |
